Data reported in patent US12077503B2, “Substituted cyclic amides and their use as herbicides” (FMC CORPORATION, priority 2015, dated 2024).

Experiments:
Assay type in all cases: in vivo
[1] = test system: corn (Zea mays); assay: Test A postemergence; conditions: Zea mays, post-emergence, 240 h; for plant injury at 125 g/ha: 125 g ai/ha, postemergence, visual injury vs untreated controls after approx. 10 d, 0 = no effect, 100 = complete control, read-out: Corn plant response rating (0 to 100 scale); for Corn plant response rating (crop injury, 0 = no effect, 100 = complete kill) at 31 g/ha: Postemergence, 31 g ai/ha, visual injury after approx. 10 d, 0 to 100 scale, 100 complete control
Outline: (§1)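 Treatment is preemergence as a directed soil spray after planting, or postemergence at the one- to two-leaf stage, with test chemical in a non-phytotoxic solvent mixture plus surfactant. Plants stay in the greenhouse about 10 d before visual injury scoring on a 0 to 100 scale versus untreated controls.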

[2] = test system: Kochia (Kochia scoparia); assay: Test A postemergence; conditions: Bassia scoparia, post-emergence, 240 h; for pest or weed control at 125 g/ha: 125 g ai/ha, postemergence, visual injury vs untreated controls after approx. 10 d, 0 = no effect, 100 = complete control, read-out: Kochia plant response rating (0 to 100 scale); for pest or weed control at 31 g/ha: Postemergence, 31 g ai/ha, visual injury after approx. 10 d, 0 to 100 scale, 0 no effect, 100 complete control, read-out: Plant response rating, Kochia
Outline: as §1

[3] = test system: ragweed (common ragweed, Ambrosia elatior); assay: Test A postemergence; conditions: Ambrosia artemisiifolia, post-emergence, 240 h, 125 g ai/ha, postemergence, visual injury vs untreated controls after approx. 10 d; 0 = no effect, 100 = complete control; read-out: Ragweed plant response rating (0 to 100 scale)
Outline: as §1

[4] = test system: ryegrass, Italian (Italian ryegrass, Lolium multiflorum); assay: Test A postemergence; conditions: Lolium multiflorum, post-emergence, 240 h, 125 g ai/ha, postemergence, visual injury vs untreated controls after approx. 10 d; 0 = no effect, 100 = complete control; read-out: Ryegrass, Italian plant response rating (0 to 100 scale)
Outline: as §1

[5] = test system: blackgrass (Alopecurus myosuroides); assay: Test A postemergence; conditions: Alopecurus myosuroides, post-emergence, 240 h; for pest or weed control at 125 g/ha: 125 g ai/ha, postemergence, visual injury vs untreated controls after approx. 10 d, 0 = no effect, 100 = complete control, read-out: Blackgrass plant response rating (0 to 100 scale); for pest or weed control at 31 g/ha: Postemergence, 31 g ai/ha, visual injury after approx. 10 d, 0 to 100 scale, 0 no effect, 100 complete control, read-out: Plant response rating, Blackgrass
Outline: as §1

[6] = test system: pigweed (Amaranthus retroflexus); assay: Test A postemergence; conditions: Amaranthus retroflexus, post-emergence, 240 h, 125 g ai/ha, postemergence, visual injury vs untreated controls after approx. 10 d; 0 = no effect, 100 = complete control; read-out: Pigweed plant response rating (0 to 100 scale)
Outline: as §1

[7] = test system: giant foxtail (Setaria faberii); assay: Test A postemergence; conditions: Setaria faberi, post-emergence, 240 h; for pest or weed control at 125 g/ha: 125 g ai/ha, postemergence, visual injury vs untreated controls after approx. 10 d, 0 = no effect, 100 = complete control, read-out: Foxtail, Giant plant response rating (0 to 100 scale); for pest or weed control at 31 g/ha: Postemergence, 31 g ai/ha, visual injury after approx. 10 d, 0 to 100 scale, 0 no effect, 100 complete control, read-out: Plant response rating, Foxtail, Giant
Outline: as §1

[8] = test system: Galium (catchweed bedstraw, Galium aparine); assay: Test A postemergence; conditions: Galium, post-emergence, 240 h; for pest or weed control at 125 g/ha: 125 g ai/ha, postemergence, visual injury vs untreated controls after approx. 10 d, 0 = no effect, 100 = complete control, read-out: Galium plant response rating (0 to 100 scale); for pest or weed control at 31 g/ha: Postemergence, 31 g ai/ha, visual injury after approx. 10 d, 0 to 100 scale, 0 no effect, 100 complete control, read-out: Plant response rating, Galium
Outline: as §1

[9] = test system: barnyardgrass (Echinochloa crus-galli); assay: Test A postemergence; conditions: Echinochloa crus-galli, post-emergence, 240 h; for pest or weed control at 125 g/ha: 125 g ai/ha, postemergence, visual injury vs untreated controls after approx. 10 d, 0 = no effect, 100 = complete control, read-out: Barnyardgrass plant response rating (0 to 100 scale); for pest or weed control at 31 g/ha: Postemergence, 31 g ai/ha, visual injury after approx. 10 d, 0 to 100 scale, 0 no effect, 100 complete control, read-out: Plant response rating, Barnyardgrass
Outline: as §1

[10] = test system: wheat (Triticum aestivum); assay: Test A postemergence; conditions: Triticum aestivum, post-emergence, 240 h, 125 g ai/ha, postemergence, visual injury vs untreated controls after approx. 10 d; 0 = no effect, 100 = complete control; read-out: Wheat plant response rating (0 to 100 scale)
Outline: as §1

[11] = test system: Kochia (Kochia scoparia); assay: Test A preemergence; conditions: Bassia scoparia, pre-emergence, 240 h, 0 to 100 scale where 0 is no effect and 100 is complete control, read-out: Kochia plant response rating; for pest or weed control at 31 g/ha: 31 g ai/ha, Preemergence; for pest or weed control at 125 g/ha: 125 g ai/ha, preemergence, approx. 10 d
Outline: as §1

[12] = test system: ragweed (common ragweed, Ambrosia elatior); assay: Test A preemergence; conditions: Ambrosia artemisiifolia, pre-emergence, 240 h, 0 to 100 scale where 0 is no effect and 100 is complete control, read-out: Ragweed plant response rating; for pest or weed control at 31 g/ha: 31 g ai/ha, Preemergence; for pest or weed control at 125 g/ha: 125 g ai/ha, preemergence, approx. 10 d
Outline: as §1

[13] = test system: ryegrass, Italian (Italian ryegrass, Lolium multiflorum); assay: Test A preemergence; conditions: Lolium multiflorum, pre-emergence, 240 h, 0 to 100 scale where 0 is no effect and 100 is complete control, read-out: Ryegrass, Italian plant response rating; for pest or weed control at 31 g/ha: 31 g ai/ha, Preemergence; for pest or weed control at 125 g/ha: 125 g ai/ha, preemergence, approx. 10 d
Outline: as §1

[14] = test system: pigweed (Amaranthus retroflexus); assay: Test A preemergence; conditions: Amaranthus retroflexus, pre-emergence, 240 h, 0 to 100 scale where 0 is no effect and 100 is complete control, read-out: Pigweed plant response rating; for pest or weed control at 31 g/ha: 31 g ai/ha, Preemergence; for pest or weed control at 125 g/ha: 125 g ai/ha, preemergence, approx. 10 d
[15] = test system: giant foxtail (Setaria faberii); assay: Test A preemergence; conditions: Setaria faberi, pre-emergence, 240 h, 0 to 100 scale where 0 is no effect and 100 is complete control, read-out: Foxtail, Giant plant response rating; for pest or weed control at 31 g/ha: 31 g ai/ha, Preemergence; for pest or weed control at 125 g/ha: 125 g ai/ha, preemergence, approx. 10 d
Outline: as §1

[16] = test system: barnyardgrass (Echinochloa crus-galli); assay: Test A preemergence; conditions: Echinochloa crus-galli, pre-emergence, 240 h, 0 to 100 scale where 0 is no effect and 100 is complete control, read-out: Barnyardgrass plant response rating; for pest or weed control at 31 g/ha: 31 g ai/ha, Preemergence; for pest or weed control at 125 g/ha: 125 g ai/ha, preemergence, approx. 10 d
Outline: as §1

[17] = test system: sedge, umbrella (small-flower umbrella sedge, Cyperus difformis); assay: Test B flooded paddy test; conditions: Cyperus difformis, 250 g ai/ha, Flood; 0 to 100 scale where 0 is no effect and 100 is complete control; read-out: Sedge, Umbrella plant response rating
Outline: (§2)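 Visual ratings (0 none to 100 complete control) are relative to untreated plants, taken 13–15 d after treatment in a greenhouse. Test material went straight into floodwater standing 3 cm above the soil, kept constant, on plants at the 2-leaf stage.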

[18] = test system: rice (Oryra sativa); assay: Test B flooded paddy test; conditions: Oryza sativa, 250 g ai/ha, Flood; 0 to 100 scale where 0 is no effect and 100 is complete control; read-out: Rice plant response rating
Outline: as §2

[19] = test system: barnyardgrass (Echinochloa crus-galli); assay: Test B flooded paddy test; conditions: Echinochloa crus-galli, 250 g ai/ha, Flood; 0 to 100 scale where 0 is no effect and 100 is complete control; read-out: Barnyardgrass plant response rating
Outline: as §2

[20] = test system: ducksalad (Heteranthera limosa); assay: Test B flooded paddy test; conditions: Heteranthera limosa, 250 g ai/ha, Flood; 0 to 100 scale where 0 is no effect and 100 is complete control; read-out: Ducksalad plant response rating
Outline: as §2

Structure (SMILES) | plant injury at 125 g/ha [1] [%] | Corn plant response rating (crop injury, 0 = no effect, 100 = complete kill) at 31 g/ha [1] [%] | pest or weed control at 125 g/ha [2] [%] | pest or weed control at 31 g/ha [2] [%] | pest or weed control at 125 g/ha [3] [%] | pest or weed control at 125 g/ha [4] [%] | pest or weed control at 125 g/ha [5] [%] | pest or weed control at 31 g/ha [5] [%] | pest or weed control at 125 g/ha [6] [%] | pest or weed control at 125 g/ha [7] [%] | pest or weed control at 31 g/ha [7] [%] | pest or weed control at 125 g/ha [8] [%] | pest or weed control at 31 g/ha [8] [%] | pest or weed control at 125 g/ha [9] [%] | pest or weed control at 31 g/ha [9] [%] | plant injury at 125 g/ha [10] [%] | pest or weed control at 31 g/ha [11] [%] | pest or weed control at 125 g/ha [11] [%] | pest or weed control at 31 g/ha [12] [%] | pest or weed control at 125 g/ha [12] [%] | further results
CON1CC[C@H](c2cccc(C(F)(F)F)c2)[C@@H](C(=O)Nc2ccccc2C(F)(F)F)C1=O [Compound 1172] | 0 | 0 | 0 | 0 | 0 | 0 | 0 | 0 | 0 | 0 | 0 | 0 | 0 | 0 | 0 | 0 | 0 | 0 | 0 | 0 | pest or weed control at 31 g/ha [13]: 0%; pest or weed control at 125 g/ha [13]: 0%; pest or weed control at 31 g/ha [14]: 0%; pest or weed control at 125 g/ha [14]: 0%; pest or weed control at 31 g/ha [15]: 0%; pest or weed control at 125 g/ha [15]: 0%; pest or weed control at 31 g/ha [16]: 0%; pest or weed control at 125 g/ha [16]: 0%; pest or weed control at 250 g/ha [17]: 0%; pest or weed control at 250 g/ha [18]: 0%; pest or weed control at 250 g/ha [19]: 0%; pest or weed control at 250 g/ha [20]: 0%
CN1C[C@H](c2ccc(C(F)(F)F)c(O)c2)[C@@H](C(=O)Nc2cccc(F)c2F)C1=O [Compound 1173] | 0 | 0 | 50 | 30 | 10 | 20 | 0 | 0 | 50 | 80 | 70 | 50 | 0 | 70 | 50 | 0 | 0 | 20 | 0 | 40 | pest or weed control at 31 g/ha [13]: 0%; pest or weed control at 125 g/ha [13]: 30%; pest or weed control at 31 g/ha [14]: 0%; pest or weed control at 125 g/ha [14]: 0%; pest or weed control at 31 g/ha [15]: 30%; pest or weed control at 125 g/ha [15]: 80%; pest or weed control at 31 g/ha [16]: 60%; pest or weed control at 125 g/ha [16]: 90%; pest or weed control at 250 g/ha [17]: 0%; pest or weed control at 250 g/ha [18]: 25%; pest or weed control at 250 g/ha [19]: 60%; pest or weed control at 250 g/ha [20]: 90%
CN1CC[C@H](c2ccc3c(c2)OC(F)(F)O3)[C@@H](C(=O)Nc2cccc(Cl)c2F)C1=O [Compound 1174] | 50 | 0 | 0 | 0 | 0 | 0 | 0 | 0 | 0 | 80 | 40 | 0 | 0 | 70 | 70 | 30 | 0 | 0 | 0 | 0 | pest or weed control at 31 g/ha [13]: 0%; pest or weed control at 125 g/ha [13]: 40%; pest or weed control at 31 g/ha [14]: 0%; pest or weed control at 125 g/ha [14]: 0%; pest or weed control at 31 g/ha [15]: 80%; pest or weed control at 125 g/ha [15]: 90%; pest or weed control at 31 g/ha [16]: 80%; pest or weed control at 125 g/ha [16]: 100%; pest or weed control at 250 g/ha [17]: 0%; pest or weed control at 250 g/ha [18]: 20%; pest or weed control at 250 g/ha [19]: 70%; pest or weed control at 250 g/ha [20]: 90%
